Measurements taken from patent US9388419B2 (The Regents of the University of Colorado, a body corporate, priority 2009, dated 2016).
Where two headings read alike, the source gives them in different places.

Experiments:
E. coli Mach1-T1 = assay: Minimum inhibitory concentration (MIC) of 3-HP, microaerobic, 96 well-plate, MOPS minimal media; format: cell-based, Escherichia coli; conditions: E. coli Mach1-T1, MOPS minimal media with the supplement at its optimal concentration vs unsupplemented, microaerobic, 24 hours
Protocol: Overnight cultures of strains were grown in 5 ml LB (with antibiotic where appropriate). A 1 v/v % was used to inoculate a 15 ml conical tube filled to the top with MOPS minimal media and capped. After the cells reached mid exponential phase, the culture was diluted to an OD600 of 0.200. The cells were further diluted 1:20 and a 10 ul aliquot was used to inoculate each well (˜10^4 cells per well).
The minimum inhibitory concentration (MIC) was determined microaerobically in a 96 well-plate format. Overnight cultures of strains were grown in 5 mL LB (with antibiotic where appropriate). A 1% (v/v) inoculum was introduced into a 15 ml culture of MOPS minimal media. After the cells reached mid-exponential phase, the culture was diluted to an OD600 of 0.200. The cells were further diluted 1:20 and a 10 μL aliquot was used to inoculate each well of a 96 well plate (˜10^4 cells per well).

[1] = test system: Yeast strains (S288C background); format: cell-based, Saccharomyces cerevisiae; conditions: aerobic; for Average MIC Assay Result (g/L 3-HP): MIC of 3-HP for yeast S288C in SD media with the named supplement(s); for % Increase Over Control: increase of 3-HP MIC over S288C in SD without supplement
Protocol: The minimum inhibitory concentration (MIC) was determined aerobically in a 96 well-plate format. […] Media supplements were added according to levels reported in the Supplements Table, where specified. Overnight cultures of strains were grown in triplicate in 5 mL SD media with vitamins (Methods in Enzymology vol. 350, page 17 (2002)). A 1% (v/v) inoculum was introduced into a 5 ml culture of SD minimal media without vitamins. After the cells reached mid-exponential phase, the culture was diluted to an OD600 of 0.200. The cells were further diluted 1:5 and a 10 μL aliquot was used to inoculate each well of a 96 well plate (˜10^4 cells per well) to total volume of 100 uL. […] Plates were incubated for 72 hours at 30 C.

[2] = test system: Yeast strains (S288C background); format: cell-based, Saccharomyces cerevisiae; conditions: anaerobic; for Average MIC Assay Result (g/L 3-HP): MIC of 3-HP for yeast S288C in SD media with the named supplement(s); for % Increase Over Control: increase of 3-HP MIC over S288C in SD without supplement
Protocol: The minimum inhibitory concentration (MIC) was determined anaerobically in a 96 well-plate format. […] A 1% (v/v) inoculum was introduced into a 5 ml culture of SD minimal media without vitamins. After the cells reached mid-exponential phase, the culture was diluted to an OD600 of 0.200. The cells were further diluted 1:5 and a 10 μL aliquot was used to inoculate each well of a 96 well plate (˜10^4 cells per well) to total volume of 100 uL. […] Plates were incubated for 72 hours at 30 C. […] Plates were sealed in biobag anaerobic chambers that contained gas generators for anaerobic conditions and incubated for 72 hours at 30 C.

E. coli [3] = format: cell-based, Escherichia coli; conditions: strain BW25113, M9 media with the named supplement(s), aerobic; MIC of 3-HP versus M9 control without supplement
Protocol: (§1) For MIC evaluations, the final results are expressed in chemical agent concentrations determined by analysis of the stock solution by HPLC (i.e., see Subsection Mb).
(§2) The minimum inhibitory concentration (MIC) was determined aerobically in a 96 well-plate format. […] Media supplements were added according to levels reported in the Supplements Table, where specified. Overnight cultures of strains were grown in triplicate in 5 mL LB (with antibiotic where appropriate). A 1% (v/v) inoculum was introduced into a 5 ml culture of M9 minimal media.

B. subtilis = assay: MIC protocol B. subtilis aerobic (Common Methods, M9 media + glutamate, 24 hours); format: cell-based, Bacillus subtilis; conditions: for Avg 24 hr ΔOD600: B. subtilis 168 in M9 + glu + trp with the named supplement(s), 3HP tolerance; for % Increase Over Control: increase of 24 hr ΔOD600 over B. subtilis 168 without supplement
Protocol: as §1
as §2, with “Table” for “Table,”, “media+glutamate.” for “media.”

E. coli [4] = format: cell-based, Escherichia coli; conditions: anaerobic; for % Increase Over Control: increase of 3-HP MIC over BW25113 in M9 without supplement; for MIC Assay Result (g/L 3-HP): MIC of 3-HP for E. coli BW25113 in M9 media with the named supplement(s), 24-hour
Protocol: as §1
as §2, with “anaerobically” for “aerobically”

strain BX3_0194 = assay: 3-HP production by BX3_0194 at 100-mL scale in SM3 medium, without or with 10 μg/ml cerulenin; format: cell-based, E. coli
Protocol: Cultures were started from freezer stocks by standard practice (Sambrook and Russell, 2001) into 50 mL of LB media plus 100 μg/mL ampicillin and grown to stationary phase overnight at 37° C. with rotation at 225 rpm. Five ml of this culture were transferred to 100 ml of SM3 media plus 40 g/L glucose, 100 μg/ml ampicillin, and 1 mM IPTG in triplicate 250-ml baffled flasks and incubated at 37° C., 225 rpm. […] Dry cell weight (DCW) is calculated as 0.33 times the measured OD600 value, based on baseline DCW to OD600 determinations. All data are the average of triplicate cultures.

E. coli K12 = format: cell-based, Escherichia coli; conditions: E. coli K12, M9 minimal media supplemented with the substance (polyamines 0.1 g/L, sodium bicarbonate 20 mM), aerobic, 24 hours
Protocol: Overnight cultures of strains were grown in 5 ml LB (with antibiotic where appropriate) at 37° C. in a shaking incubator. A 1 v/v % was used to inoculate 10 mL of M9 minimal media. After the cells reached mid-exponential phase, the culture was diluted to an OD600 of 0.200. The cells were further diluted 1:20 and a 10 ul aliquot was used to inoculate each well (˜10^4 cells per well). […] The MIC endpoint is the lowest concentration of compound at which there was no visible growth.

SMILES	MIC increase (3-HP) resulting from supplementation (E. coli Mach1-T1) [%]	% Increase Over Control [2] [%]	% Increase Over Control (E. coli [3]) [%]	further results
O=C(O)c1cccc(O)c1O [2,3-didyroxybenzoic acid, 2,3-dihydroxybenzoic acid]	33			
CCC(=O)C(=O)O [2-oxobutyrate (B)]		2		Average MIC Assay Result (g/L 3-HP) [1]: 50 g/L; % Increase Over Control [1]: 11%; Average MIC Assay Result (g/L 3-HP) [2]: 38 g/L
N[C@@H](CC(=O)O)C(=O)O [Aspartate]				% Increase Over Control [1]: 26%
O=C(O)O [Bicarbonate (C)]		140	59	Average MIC Assay Result (g/L 3-HP) [2]: 90 g/L
NCCCCCN [Cadaverine (C)]		60		
O=C(O)CC(O)(CC(=O)O)C(=O)O [Citrate]				Avg 24 hr ΔOD600 (B. subtilis): 0.30
NC(=O)NCCC[C@H](N)C(=O)O [Citrulline (C)]			9	Average MIC Assay Result (g/L 3-HP) [1]: 58 g/L; % Increase Over Control [1]: 28%; Average MIC Assay Result (g/L 3-HP) [2]: 97 g/L
NC(=O)CC[C@H](N)C(=O)O [Glutamine(C)]			9	
NCC(=O)O [Glycine (B)]		60		Average MIC Assay Result (g/L 3-HP) [1]: 50 g/L; % Increase Over Control [1]: 11%; Average MIC Assay Result (g/L 3-HP) [2]: 60 g/L
NC(CCS)C(=O)O (stereo not drawn) [Homocysteine (B)]		7	9	Average MIC Assay Result (g/L 3-HP) [2]: 40 g/L
CC[C@H](C)[C@H](N)C(=O)O [Isoleucine (B)]		2	17	Average MIC Assay Result (g/L 3-HP) [2]: 38 g/L
NCCCC[C@H](N)C(=O)O [Lysine (D)]		20	33	% Increase Over Control (E. coli [4]): 39%; Average MIC Assay Result (g/L 3-HP) [2]: 45 g/L
CSCC[C@H](N)C(=O)O [Methionine]				Avg 24 hr ΔOD600 (B. subtilis): 0.15
NCCC[C@H](N)C(=O)O [Ornithine(C)]			9	
N[C@@H](Cc1ccccc1)C(=O)O [Phenylalanine (A)]		2	17	
N[C@@H](CO)C(=O)O [Serine (B)]		20	17	% Increase Over Control (E. coli [4]): 7%; Average MIC Assay Result (g/L 3-HP) [2]: 45 g/L
O=C(O)C1=C[C@@H](O)[C@@H](O)[C@H](O)C1 [Shikimate (A)]		60	3	Average MIC Assay Result (g/L 3-HP) [1]: 80 g/L; % Increase Over Control [1]: 78%; Average MIC Assay Result (g/L 3-HP) [2]: 60 g/L

SMILES	MIC increase (3-HP) resulting from supplementation (E. coli Mach1-T1) [%]	% Increase Over Control [2] [%]	% Increase Over Control (E. coli [3]) [%]	further results
NCCCCNCCCN [Spermidine (C)]		60		
Nc1nc(=O)c2c([nH]1)NC[C@@H](CNc1ccc(C(=O)N[C@@H](CCC(=O)O)C(=O)O)cc1)N2 [Tetrahydrofolate (A)]			9	MIC Assay Result (g/L 3-HP) (E. coli [4]): 40.0 g/L; % Increase Over Control (E. coli [4]): 33%
C[C@@H](O)[C@H](N)C(=O)O [Threonine (B)]		2		
N[C@@H](Cc1c[nH]c2ccccc12)C(=O)O [Tryptophan (A)]		47		% Increase Over Control [1]: 20%
C/C=C/C/C=C/CCC(=O)[C@H]1O[C@H]1C(N)=O [cerulenin]				3HP (strain BX3_0194; 4 hr): 0.003 g/L; 3HP (strain BX3_0194; 6 hr): 0.14 g/L; 3HP (strain BX3_0194; 8 hr): 0.43 g/L; 3HP (strain BX3_0194; 24 hr): 1.43 g/L
Cl.NC1CCSC1=O (stereo not drawn) [homocysteine thiolactone hydrochloride]	60			
N[C@@H](CCO)C(=O)O [homoserine]	33			
CCC(=O)C(=O)O [oxobutanoate]	7			
Nc1ccc(C(=O)O)cc1 [p-aminobenzoate (A)]			27	MIC Assay Result (g/L 3-HP) (E. coli [4]): 40.0 g/L; % Increase Over Control (E. coli [4]): 33%
Nc1ccc(C(=O)O)cc1 [p-aminobenzoic acid]	7			Avg 24 hr ΔOD600 (B. subtilis): 0.07; % Increase Over Control (B. subtilis): 89%
NNC(=O)c1ccc(O)cc1 [p-hydroxybenzoic acid hydrazide]	33			
N[C@@H](Cc1ccccc1)C(=O)O [phenylalanine]	33			
Cc1ncc(CO)c(CO)c1O.Cl [pyridoxine hydrochloride]	0			
O=C([O-])O.[Na+] [sodium bicarbonate]				Avg 24 hr ΔOD600 (B. subtilis): 0.06; % Increase Over Control (B. subtilis): 56%; Minimum inhibitory concentration (MIC) of 3-HP in supplemented media (E. coli K12): 30 mg/mL
C[C@@H](O)[C@H](N)C(=O)O [threonine]	3			
N[C@@H](Cc1c[nH]c2ccccc12)C(=O)O [tryptophan]	33			
N[C@@H](Cc1ccc(O)cc1)C(=O)O [tyrosine]	40			
